According to patent US7141560B2, “Alanine 2,6-dialkoxyphenyl ester derivatives as hypnotics” (Akzo Nobel N.V., priority 2001, dated 2006):

Tested on: mice
Assay: Hypnotic activity: loss of righting reflex after intravenous injection in mice
Assay type: in vivo
Conditions: intravenous injection over 10 seconds, dose causing loss of righting reflex for minimum 30 seconds in 50% of treated mice; for ED50: Mus musculus, read-out: HD50 (hypnotic dose50)
Description: The hypnotic potency of the alanine 2,6-dialkoxyphenyl ester derivatives of the invention was determined upon their intravenous administration in mice. The dose required to cause a loss of righting reflex for a minimum period of 30 seconds in 50% of treated mice after intravenous injection over 10 seconds was determined. This dose is termed the HD50 (hypnotic dose50) and is expressed in μmol.kg^−1. These in vivo experiments were carried out as described in detail by Anderson et al., J. Med. Chem. 1997, 40, 1668–1681.

SMILES | HD50 (hypnotic dose50) | ED50
COCCN(CCOC)C(CCC(=O)OC)C(=O)Oc1c(OC)cccc1OC.Cl (stereo not shown) [Example 48, Pentanedioic acid, 2-[bis-(2-methoxyethyl)amino]-, 1-(2,6-dimethoxyphenyl)ester, 5-methyl ester hydrochloride (1:1) salt] | 37 µmol/kg | –
COc1cc(C)cc(OC)c1OC(=O)C(CCSC)N1CCOCC1 (stereo not shown) [Example 39a, Butanoic acid, 4-(methylthio)-2-(4-morpholinyl)-, 1-(2,6-dimethoxy-4-methylphenyl)ester] | 35 µmol/kg | –
CCOCCN(CCOCC)C(CCOC)C(=O)Oc1c(OC)cccc1OC (stereo not shown) [Example 10g, 2-[N-(Bis(2-ethoxyethyl)amino)]-4-methoxybutyric acid, 2,6-dimethoxyphenyl ester] | 28 µmol/kg | –
COC(=O)CC(C(=O)Oc1c(OC)cc(C)cc1OC)N1CCCCCC1 (stereo not shown) [Example 30b, Butanedioic, 2-(1-hexahydroazepinyl)-, 1-(2,6-dimethoxy-4-methyl-phenyl)ester, 4-methyl ester] | 26 µmol/kg | –
COCC(C(=O)Oc1c(OC)cc(C)cc1OC)N1CCSCC1 (stereo not shown) [Example 3j, 3-Methoxy-2-[N-thiomorpholinyl]propionic acid, 2,6-dimethoxy-4-methylphenyl ester] | – | 42 µmol/kg
COc1cccc(OC)c1OC(=O)C(CN1CCOCC1)N1CCc2ccccc2C1 (stereo not shown) [Example 19b, 3-(4-Morpholinyl)-2-(1,2,3,4-tetrahydroisoquinoline)propanoic acid, 2,6-dimethoxyphenyl ester] | 29 µmol/kg | –
COC(=O)CCC(C(=O)Oc1c(OC)cc(C)cc1OC)N1CCCCC1.Cl (stereo not shown) [Example 49b, Pentanedioic acid, 2-(1-piperidinyl)-, 1-(2,6-dimethoxy-4-methylphenyl)ester, 5-methyl ester hydrochloride (1:1) salt] | 47 µmol/kg | –
COCCC(C(=O)Oc1c(OC)cccc1OC)N(CCOC)CCOC (stereo not shown) [Example 10h, 2-[N-(Bis(2-methoxyethyl)amino)]-4-methoxybutyric acid, 2,6-dimethoxyphenyl ester] | 27 µmol/kg | –
CCOCCC(C(=O)Oc1c(OC)cccc1OC)N(CCOCC)CCOCC (stereo not shown) [Example 10s, 2-[N-(Bis(2-ethoxyethyl)amino)]-4-ethoxybutyric acid, 2,6-dimethoxyphenyl ester] | 47 µmol/kg | –
COCCN(CCOC)C(CCSC)C(=O)Oc1c(OC)cc(C)cc1OC (stereo not shown) [Example 39c, Butanoic acid, 2-[N-bis(2-methoxyethyl)amino]-4-(methylthio), 1-(2,6-dimethoxy-4-methylphenyl)ester] | 23 µmol/kg | –
COc1cccc(OC)c1OC(=O)C(CN1CCOCC1)N1CCSC(C)(C)C1 (stereo not shown) [Example 19c, 2-[N-(2,2-Dimethylthiomorpholinyl)]-3-(4-morpholinyl)propanoic acid, 2,6-dimethoxyphenyl ester] | 28 µmol/kg | –
COCCC(C(=O)Oc1c(OC)cccc1OC)N1CCOCC1 (stereo not shown) [Example 10b, 4-Methoxy-2-[4-morpholinyl]butyric acid, 2,6-dimethoxyphenyl ester] | – | 38 µmol/kg
COCC(C(=O)Oc1c(OC)cccc1OC)N1CCCOCC1 (stereo not shown) [Example 3a, 2-[4-(Hexahydro-1-oxazepinyl)]-3-methoxypropionic acid, 2,6-dimethoxyphenyl ester] | 30 µmol/kg | –
COCCC(C(=O)Oc1c(OC)cccc1OC)N1CCCOCC1 (stereo not shown) [Example 10a, 2-[4-(Hexahydro-1-oxazepinyl)]-4-methoxybutyric acid, 2,6-dimethoxyphenyl ester] | 15 µmol/kg | –
COc1cccc(OC)c1OC(=O)C(CCN1CCOCC1)N1CCOCC1 (stereo not shown) [Example 21a, 2,4-Di-(4-morpholinyl)butanoic acid, 2,6-dimethoxyphenyl ester] | – | 50 µmol/kg
COc1cccc(OC)c1OC(=O)C(CC(=O)N1CCCC1)N1CCCCCC1 (stereo not shown) [Example 36, Butanedioic, 2-(1-hexahydroazepinyl)-4-oxo-4-(1-pyrrolidinyl)-, 1-(2,6-dimethoxyphenyl)ester] | 34 µmol/kg | –
